Data: PubChem BioAssay (NCI)
Values joined by “and” are separate entries in the source; they are usually repeats but may differ in a detail not shown here. Equal entries are not always repeated.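 48-hour exposure; five concentrations; linearly interpolated endpoints. At the GI50, growth is halved. TGI is the concentration that stops growth completely.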

Experiments:
Assay in all cases: NCI tumour cell line growth inhibition, 48 h
T-47D breast = test system: T-47D breast
MALME-3M melanoma = test system: MALME-3M melanoma
HCT-116 colon = test system: HCT-116 colon
SNB-75 CNS = test system: SNB-75 CNS
A498 renal = test system: A498 renal
SF-295 CNS = test system: SF-295 CNS
MCF7 breast = test system: MCF7 breast
HT29 colon = test system: HT29 colon
SK-OV-3 ovarian = test system: SK-OV-3 ovarian
CAKI-1 renal = test system: CAKI-1 renal

SMILES	GI50 (T-47D breast)	TGI (T-47D breast)	GI50 (MALME-3M melanoma)	TGI (MALME-3M melanoma)	GI50 (HCT-116 colon)	TGI (HCT-116 colon)	GI50 (SNB-75 CNS)	TGI (SNB-75 CNS)	GI50 (A498 renal)	TGI (A498 renal)	GI50 (SF-295 CNS)	TGI (SF-295 CNS)	GI50 (MCF7 breast)	TGI (MCF7 breast)	GI50 (HT29 colon)	TGI (HT29 colon)	GI50 (SK-OV-3 ovarian)	TGI (SK-OV-3 ovarian)	GI50 (CAKI-1 renal)	TGI (CAKI-1 renal)
CC(=O)OC1Oc2ccccc2-c2oc(=O)c(-c3cc(=O)oc4cc(O)ccc34)cc21 (centres undefined)	12.1 µM	48.4 µM	20.9 µM	59.2 µM	25 µM	> 100 µM	22.3 µM	72.2 µM	13.3 µM	40.4 µM	8.74 µM	25.2 µM	29.9 µM	> 100 µM	26.4 µM	> 100 µM	26.7 µM	87.6 µM	21.7 µM	83.7 µM
O=c1n(CC2CO2)c(=O)n(CC2CO2)c(=O)n1CC1CO1 (centres undefined)	7.66 µM and 10 µM	70.3 µM and > 100 µM	17.1 µM and 43.2 µM	44.3 µM and 70.2 µM and > 100 µM	12.3 µM and 10.2 µM	43.9 µM and 88.6 µM and > 100 µM	6.8 µM and 21.1 µM	89.8 µM and > 100 µM	12.2 µM	83.9 µM and 26.5 µM	4.18 µM	34.1 µM and 126 µM and > 100 µM	3.9 µM and 1.89 µM	85.7 µM and > 100 µM	24.4 µM	62.3 µM and > 100 µM	6.86 µM	123 µM and > 100 µM	0.81 µM	52.1 µM and 64.9 µM
COc1ccc2c(c1)CCC1C2CC[C@@]2(C)C1CC1=CC(COC(C)=O)C3C(=O)c4ccccc4C(=O)C3C12 (some centres undefined)	90.6 µM	> 100 µM	> 100 µM	> 100 µM	> 100 µM	> 100 µM	36.3 µM	> 100 µM	> 100 µM	> 100 µM	> 100 µM	> 100 µM	> 100 µM	> 100 µM	94.9 µM	> 100 µM	> 100 µM	> 100 µM	> 100 µM	> 100 µM
Ic1ccc(Nc2nc3nonc3nc2Nc2ccc(I)cc2)cc1	0.179 µM	> 91.1 µM	0.167 µM	0.604 µM	0.135 µM	> 100 µM	0.227 µM	> 100 µM	0.0829 µM	0.418 µM	0.215 µM	0.893 µM	0.225 µM	> 100 µM	0.265 µM	> 100 µM	0.23 µM	0.741 µM	0.214 µM	
O=S(=O)([O-])c1ccc2c(c1)-c1nc-2nc2[n-]c(nc3nc(nc4[n-]c(n1)c1ccc(S(=O)(=O)[O-])cc41)-c1cc(S(=O)(=O)[O-])ccc1-3)c1ccc(S(=O)(=O)[O-])cc21.[Cu+2].[Na+]	75.6 µM	> 100 µM	> 100 µM	> 100 µM	15.8 µM	> 100 µM	> 67.3 µM	> 100 µM	> 100 µM	> 100 µM	98.4 µM	> 100 µM	> 100 µM	> 100 µM	3.32 µM	> 100 µM	97.9 µM	> 100 µM	> 100 µM	> 100 µM
CCN1CCN(c2ccc(Nc3cc(N(C)C(=O)Nc4c(Cl)c(OC)cc(OC)c4Cl)ncn3)cc2)CC1	2.51 µM	6.49 µM	1.82 µM	3.5 µM	1.73 µM	5.2 µM	5.23 µM	22.2 µM	< 0.0113 µM	0.062 µM	11.4 µM	25.9 µM	2.41 µM	11.8 µM	1.55 µM	3.69 µM	8.02 µM	20.8 µM	4.19 µM	> 48.2 µM
COc1cc(Nc2cn[nH]c2-c2ccc(Cl)cc2)cc(OC)c1OC	4.56 µM	56 µM	4.51 µM	45.8 µM	3.73 µM	13.7 µM	1.14 µM	7.66 µM	4.58 µM	23.8 µM	2.18 µM	11.3 µM	3.3 µM	53.2 µM	3.24 µM	14.3 µM	4.92 µM	36.6 µM	2.34 µM	26.2 µM
CC(SC(C)C(=O)N/N=C/c1cccc(Cl)c1)C(=O)N/N=C\c1cccc(Cl)c1 (centres undefined)	23 µM	93.8 µM	13.9 µM	35.7 µM	2.65 µM	7.94 µM	4.28 µM	19.5 µM	14.6 µM	32.2 µM	14.1 µM	35 µM	5.16 µM	18.6 µM	11.6 µM	32.1 µM	13 µM	31.2 µM	61.4 µM	> 100 µM
COc1ncnc(C2CC2)c1-c1ncc2cnn(Cc3ccc(-c4nc(C(F)(F)F)cn4C(C)C)cc3)c2n1	10.6 µM	85.2 µM	17.8 µM	57.3 µM	22.2 µM	> 100 µM	5.36 µM	53.6 µM	24.5 µM	> 100 µM	18.4 µM	65.1 µM	17.3 µM	57.4 µM	17.9 µM	> 100 µM	36.8 µM	> 100 µM	14.2 µM	> 100 µM
